In patent US11530210B2, “Substituted heteroaromatic pyrazolo-pyridines and their use as GLUN2B receptor modulators” (JANSSEN PHARMACEUTICA NV, priority 2019, dated 2022) one finds IC50 data, which are given here for 28 molecules.

The target in this assay is T1, human GluN1/GluN2B NMDA receptors (Homo sapiens, UniProt Q13224).
T1 construct: expressed in transfected cells
Put plainly: Calcium flux (FLIPR) assay on cloned human NR1/GluN2B ion channels expressed in mammalian cells (standard and HTS variants). Format: cell-based. The conditions noted are these: cells expressing human GluN1/GluN2B, glutamate and glycine co-agonists. On the procedure:
Effects of Test Articles on Cloned Human NR1/GuN2B Ion Channels Expressed in Mammalian Cells
NMDA receptors are ion channels that are highly permeable to Ca^2+ ions, rendering it possible to monitor NMDA receptor function using cell-based calcium flux assay. In this assay, co-agonists glutamate and glycine are added to cells heterologously expressing human GluN1/GluN2B NMDA receptors to initiate cellular Ca^2+ influx. The time course of the changes in intracellular calcium is measured using a fluorescent dye and a FLIPR (Fluorometric Imaging Plate Reader) device.
Twenty-four hours before measurements, the expression of the NMDA receptors in the stable cell line is induced with Tet-On inducible system in the presence of a non-selective NMDA receptor blocker. On the day of the experiment, cell culture media is carefully washed, and the cells are loaded with Calcium 5 Dye Kit (Molecular Devices) in dye loading buffer containing 137 mM NaCl, 4 mM KCl, 2 mM CaCl2, 0.5 mM MgCl2 (standard assay) or 1.5 mM MgCl2 (HTS assay), 10 mM HEPES and 5 mM D-glucose; pH 7.4. After 1 h incubation at the room temperature, the dye is washed away with the assay buffer (137 mM NaCl (standard assay) or 150 mM (HTS assay), 4 mM KCl (standard assay) or 3 mM (HTS assay), 2 mM CaCl2), 0.01 mM EDTA, 10 mM HEPES and 5 mM D-glucose; pH 7.4) In the FLIPR TETRA reader, various concentrations of the test compounds are added to the cells for 5 min while fluorescence is monitored to detect potential agonist activity. Next, co-agonists, glutamate and glycine are added for another 5 minutes. The concentration of glutamate corresponding to ˜EC40 (standard assay) or EC40 (HTS assay) is used to maximize the assay's signal window and ability to detect NMDA receptor antagonists and negative allosteric modulators. A saturating concentration (10 μM) of glycine is also present in the assay. A non-selective NMDA receptor antagonist, (+)MK-801 is used as a positive control for antagonist activity. The fluorescent signal in the presence of test compounds is quantified and normalized to the signal defined by the appropriate control wells.
In general terms: Calcium assays in cells follow changes in intracellular calcium, usually with a dye or a luminescent sensor.

The structures appear in SMILES notation. Structures can show the parent of a compound that is named as a salt.

T1 sequence (Q13224 27-1484, other chains not shown): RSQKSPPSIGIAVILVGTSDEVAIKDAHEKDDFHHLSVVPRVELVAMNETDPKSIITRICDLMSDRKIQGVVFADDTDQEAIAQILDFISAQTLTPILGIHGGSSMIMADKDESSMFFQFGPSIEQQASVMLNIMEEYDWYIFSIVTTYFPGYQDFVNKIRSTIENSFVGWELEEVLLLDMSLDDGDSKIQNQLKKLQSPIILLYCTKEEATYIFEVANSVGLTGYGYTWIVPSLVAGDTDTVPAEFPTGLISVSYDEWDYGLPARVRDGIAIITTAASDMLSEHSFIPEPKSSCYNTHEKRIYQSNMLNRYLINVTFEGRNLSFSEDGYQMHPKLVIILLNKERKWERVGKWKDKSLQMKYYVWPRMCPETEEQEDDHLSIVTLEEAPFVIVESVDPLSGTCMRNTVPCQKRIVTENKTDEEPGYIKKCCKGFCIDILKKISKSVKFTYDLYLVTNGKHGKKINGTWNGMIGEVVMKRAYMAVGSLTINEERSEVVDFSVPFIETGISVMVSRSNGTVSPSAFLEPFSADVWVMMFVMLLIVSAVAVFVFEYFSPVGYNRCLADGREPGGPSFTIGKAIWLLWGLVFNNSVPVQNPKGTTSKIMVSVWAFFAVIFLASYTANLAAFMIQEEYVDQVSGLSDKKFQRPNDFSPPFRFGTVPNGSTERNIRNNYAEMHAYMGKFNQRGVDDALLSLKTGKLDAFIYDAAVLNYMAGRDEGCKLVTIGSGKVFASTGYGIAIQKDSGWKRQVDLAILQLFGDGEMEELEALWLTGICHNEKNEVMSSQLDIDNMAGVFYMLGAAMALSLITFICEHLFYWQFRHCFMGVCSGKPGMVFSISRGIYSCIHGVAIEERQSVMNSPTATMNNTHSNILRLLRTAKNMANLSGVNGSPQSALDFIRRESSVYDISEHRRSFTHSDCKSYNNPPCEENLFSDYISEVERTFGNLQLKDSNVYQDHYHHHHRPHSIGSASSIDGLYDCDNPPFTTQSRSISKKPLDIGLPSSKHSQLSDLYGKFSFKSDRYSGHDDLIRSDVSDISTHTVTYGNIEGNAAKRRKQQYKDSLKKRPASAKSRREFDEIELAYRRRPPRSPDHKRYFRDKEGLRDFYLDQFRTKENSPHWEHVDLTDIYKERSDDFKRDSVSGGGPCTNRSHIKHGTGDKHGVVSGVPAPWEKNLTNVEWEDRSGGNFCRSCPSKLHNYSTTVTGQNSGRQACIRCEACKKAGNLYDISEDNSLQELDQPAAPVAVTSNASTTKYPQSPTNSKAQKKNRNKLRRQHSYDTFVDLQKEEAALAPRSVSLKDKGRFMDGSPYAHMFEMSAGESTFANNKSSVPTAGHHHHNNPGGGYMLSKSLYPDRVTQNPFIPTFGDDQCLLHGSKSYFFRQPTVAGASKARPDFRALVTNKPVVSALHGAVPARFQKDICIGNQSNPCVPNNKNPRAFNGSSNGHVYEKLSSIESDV

For orientation: IC50 means the concentration needed to halve the response being measured. As for `CC(C)c1nnc(Cn2ncc3ncc(-c4ccc(F)c(C(F)F)c4)cc32)o1` [Example 100, 2-[[6-[3-(Difluoromethyl)-4-fluoro-phenyl]pyrazolo[4,3-b]pyridin-1-yl]methyl]-5-isopropyl-1,3,4-oxadiazole], the concentration for half-maximal inhibition (IC50) stood at 550 nM.
Next, `CC(F)(F)c1cc(-c2cnc3cnn(Cc4cccnc4)c3c2)ccc1F` [Example 216, 6-[3-(1,1-Difluoroethyl)-4-fluoro-phenyl]-1-(3-pyridylmethyl)pyrazolo[4,3-b]pyridine]: 109 nM.
Next, `Fc1cncc(Cn2ncc3ncc(-c4ccc(Cl)c(OC(F)F)c4)cc32)c1` [Example 240, 6-[4-Chloro-3-(difluoromethoxy)phenyl]-1-[(5-fluoro-3-pyridyl)methyl]pyrazolo[4,3-b]pyridine]: 166 nM; `FC(F)(F)c1cccc(-c2cnc3cnn(Cc4csnn4)c3c2)c1` [Example 120, 4-[[6-[3-(Trifluoromethyl)phenyl]pyrazolo[4,3-b]pyridin-1-yl]methyl]thiadiazole]: 895 nM; `Cc1cncc(Cn2ncc3ncc(-c4ccc(F)c(C)c4)cc32)c1` [Example 180, 6-(4-Fluoro-3-methyl-phenyl)-1-[(5-methyl-3-pyridyl)methyl]pyrazolo[4,3-b]pyridine trifluoroacetate salt]: 62 nM.
The same measure for `FC(F)(F)c1cncc(Cn2ncc3ncc(-c4cccc(C(F)(F)F)c4)cc32)c1` [Example 175, 6-[3-(Trifluoromethyl)phenyl]-1-[[5-(trifluoromethyl)-3-pyridyl]methyl]pyrazolo[4,3-b]pyridine]: 2300 nM.
`Cc1ccncc1Cn1ncc2ncc(-c3ccc(F)c(F)c3)cc21` [Example 190, 6-(3,4-Difluorophenyl)-1-[(4-methyl-3-pyridyl)methyl]pyrazolo[4,3-b]pyridine trifluoroacetate salt]: the IC50 came out at 158 nM.
Next, `FC(F)(F)c1cccc(-c2cnc3cnn(Cc4ccnnc4)c3c2)c1` [Example 254, 1-(Pyridazin-4-ylmethyl)-6-[3-(trifluoromethyl)phenyl]pyrazolo[4,3-b]pyridine]: 548 nM; `Fc1cccc(-c2cnc3cnn(Cc4cccnn4)c3c2)c1` [Example 256, 6-(3-Fluorophenyl)-1-(pyridazin-3-ylmethyl)pyrazolo[4,3-b]pyridine trifluoroacetate salt]: 1410 nM.
Next, `Fc1ccc(-c2cnc3cnn(Cc4ccccn4)c3c2)cc1F` [Example 186, 6-(3,4-Difluorophenyl)-1-(2-pyridylmethyl)pyrazolo[4,3-b]pyridine trifluoroacetate salt]: 2520 nM; `Cc1cncc(Cn2ncc3ncc(-c4ccc(F)c(F)c4)cc32)c1` [Example 189, 6-(3,4-Difluorophenyl)-1-[(5-methyl-3-pyridyl)methyl]pyrazolo[4,3-b]pyridine]: 70 nM; `Cc1ncc(Cn2ncc3ncc(-c4ccc(F)c(C)c4)cc32)o1` [Example 48, 5-[[6-(4-Fluoro-3-methyl-phenyl)pyrazolo[4,3-b]pyridin-1-yl]methyl]-2-methyl-oxazole]: 113 nM.
The same measure for `Fc1ccc(Cn2ncc3ncc(-c4ccc(F)c(F)c4)cc32)cn1` [Example 191, 6-(3,4-Difluorophenyl)-1-[(6-fluoro-3-pyridyl)methyl]pyrazolo[4,3-b]pyridine]: 176 nM; for `N#Cc1cncc(Cn2ncc3ncc(-c4cccc(C(F)F)c4F)cc32)c1` [Example 212, 5-[[6-[3-(Difluoromethyl)-2-fluoro-phenyl]pyrazolo[4,3-b]pyridin-1-yl]methyl]pyridine-3-carbonitrile]: 67 nM; for `N#Cc1cncc(Cn2ncc3ncc(-c4ccc(C(F)(F)F)s4)cc32)c1` [Example 144, 5-[[6-[5-(Trifluoromethyl)-2-thienyl]pyrazolo[4,3-b]pyridin-1-yl]methyl]pyridine-3-carbonitrile]: 582 nM.
In the case of `Fc1cncc(Cn2ncc3ncc(-c4ccccc4F)cc32)c1` [Example 153, 6-(2-Fluorophenyl)-1-[(5-fluoro-3-pyridyl)methyl]pyrazolo[4,3-b]pyridine], the IC50 worked out at 720 nM.
Next, `Cc1noc(Cn2ncc3ncc(-c4ccc(F)c(C(F)(F)F)c4)cc32)n1` [Example 110, 5-[[6-[4-Fluoro-3-(trifluoromethyl)phenyl]pyrazolo[4,3-b]pyridin-1-yl]methyl]-3-methyl-1,2,4-oxadiazole]: 400 nM; `CC(F)(F)c1cc(-c2cnc3cnn(Cc4cncc(Cl)c4)c3c2)ccc1F` [Example 221, 1-[(5-Chloro-3-pyridyl)methyl]-6-[3-(1,1-difluoroethyl)-4-fluoro-phenyl]pyrazolo[4,3-b]pyridine]: 64 nM; `N#Cc1cccc(Cn2ncc3ncc(-c4ccc(F)c(C(F)F)c4)cc32)c1` [Example 26, 3-[[6-[3-(Difluoromethyl)-4-fluoro-phenyl]pyrazolo[4,3-b]pyridin-1-yl]methyl]benzonitrile]: 62 nM.
Next, `Cc1cncc(Cn2ncc3ncc(-c4ccc(F)c(C(F)F)c4)cc32)c1` [Example 200, 6-[3-(Difluoromethyl)-4-fluoro-phenyl]-1-[(5-methyl-3-pyridyl)methyl]pyrazolo[4,3-b]pyridine]: 12 nM.
The same measure for `COc1nccc(Cn2ncc3ncc(-c4ccc(F)c(C(F)F)c4)cc32)n1` [Example 290, 6-[3-(Difluoromethyl)-4-fluoro-phenyl]-1-[(2-methoxypyrimidin-4-yl)methyl]pyrazolo[4,3-b]pyridine]: 320 nM; for `Cc1cc(Cn2ncc3ncc(-c4ccc(F)cc4)cc32)no1` [Example 43, 3-[[6-(4-Fluorophenyl)pyrazolo[4,3-b]pyridin-1-yl]methyl]-5-methyl-isoxazole]: 139 nM.
As to `Cc1cncc(Cn2ncc3ncc(-c4ccc(Cl)c(OC(F)F)c4)cc32)c1` [Example 239, 6-[4-Chloro-3-(difluoromethoxy)phenyl]-1-[(5-methyl-3-pyridyl)methyl]pyrazolo[4,3-b]pyridine], the 50% inhibitory concentration (IC50) amounted to 120 nM.
The same measure for `FC(F)(F)c1cccc(-c2cnc3cnn(Cc4cccnn4)c3c2)c1` [Example 258, 1-(Pyridazin-3-ylmethyl)-6-[3-(trifluoromethyl)phenyl]pyrazolo[4,3-b]pyridine]: 240 nM; for `Fc1cncc(Cn2ncc3ncc(-c4cccc(C(F)(F)F)c4)cc32)c1` [Example 171, 1-[(5-Fluoro-3-pyridyl)methyl]-6-[3-(trifluoromethyl)phenyl]pyrazolo[4,3-b]pyridine]: 212 nM.
Turning to `FC(F)(F)c1cccc(-c2cnc3cnn(Cc4nnco4)c3c2)c1` [Example 7, 2-[[6-[3-(Trifluoromethyl)phenyl]pyrazolo[4,3-b]pyridin-1-yl]methyl]-1,3,4-oxadiazole], the IC50 stood at 748 nM.
For `Cc1nnc(Cn2nc(F)c3ncc(-c4ccc(Cl)c(C(F)F)c4)cc32)o1` [Example 107, 2-[[6-[4-Chloro-3-(difluoromethyl)phenyl]-3-fluoro-pyrazolo[4,3-b]pyridin-1-yl]methyl]-5-methyl-1,3,4-oxadiazole], the 50% inhibitory concentration (IC50) is 347 nM.
In the case of `N#Cc1cncc(Cn2ncc3ncc(-c4ccc(Cl)s4)cc32)c1` [Example 140, 5-[[6-(5-Chloro-2-thienyl)pyrazolo[4,3-b]pyridin-1-yl]methyl]pyridine-3-carbonitrile], the half-maximal inhibitory concentration (IC50) came to 170 nM.
